Reference: ChEMBL document CHEMBL3044736, “Synthesis, characterization, solvatochromic properties, and antimicrobial evaluation of 5-acetyl-2-thioxo-dihydro-pyrimidine-4,6-dione-based chalcones” (2013)
In brackets after ≈: the same amount, converted by molar mass.

What was measured:
Format in all cases: functional
Penicillium [1] = experiment: Antimicrobial activity against Penicillium wild strain assessed as diameter of growth inhibition zone at 250 ug/ml after 48-96 hr by agar cup diffusion method; conditions: read-out: DIZ
Penicillium [2] = experiment: Antimicrobial activity against Penicillium wild strain assessed as diameter of growth inhibition zone at 100 ug/ml after 48-96 hr by agar cup diffusion method; conditions: read-out: DIZ
Trichophyton rubrum [3] = experiment: Antimicrobial activity against Trichophyton rubrum MTCC 296 assessed as diameter of growth inhibition zone at 100 ug/ml after 48-96 hr by agar cup diffusion method; conditions: read-out: DIZ
Aspergillus clavatus [4] = experiment: Antimicrobial activity against Aspergillus clavatus MTCC 1323 assessed as diameter of growth inhibition zone at 100 ug/ml after 48-96 hr by agar cup diffusion method; conditions: read-out: DIZ
Candida albicans [5] = experiment: Antimicrobial activity against Candida albicans MTCC 227 assessed as diameter of growth inhibition zone at 100 ug/ml after 48-96 hr by agar cup diffusion method; conditions: read-out: DIZ
Penicillium [6] = experiment: Antimicrobial activity against Penicillium wild strain assessed as diameter of growth inhibition zone at 50 ug/ml after 48-96 hr by agar cup diffusion method; conditions: read-out: DIZ
Trichophyton rubrum [7] = experiment: Antimicrobial activity against Trichophyton rubrum MTCC 296 assessed as diameter of growth inhibition zone at 50 ug/ml after 48-96 hr by agar cup diffusion method; conditions: read-out: DIZ
Aspergillus clavatus [8] = experiment: Antimicrobial activity against Aspergillus clavatus MTCC 1323 assessed as diameter of growth inhibition zone at 50 ug/ml after 48-96 hr by agar cup diffusion method; conditions: read-out: DIZ
Candida albicans [9] = experiment: Antimicrobial activity against Candida albicans MTCC 227 assessed as diameter of growth inhibition zone at 50 ug/ml after 48-96 hr by agar cup diffusion method; conditions: read-out: DIZ
Penicillium [10] = experiment: Antimicrobial activity against Penicillium wild strain assessed as diameter of growth inhibition zone at 25 ug/ml after 48-96 hr by agar cup diffusion method; conditions: read-out: DIZ
Trichophyton rubrum [11] = experiment: Antimicrobial activity against Trichophyton rubrum MTCC 296 assessed as diameter of growth inhibition zone at 25 ug/ml after 48-96 hr by agar cup diffusion method; conditions: read-out: DIZ
Aspergillus clavatus [12] = experiment: Antimicrobial activity against Aspergillus clavatus MTCC 1323 assessed as diameter of growth inhibition zone at 25 ug/ml after 48-96 hr by agar cup diffusion method; conditions: read-out: DIZ
Candida albicans [13] = experiment: Antimicrobial activity against Candida albicans MTCC 227 assessed as diameter of growth inhibition zone at 25 ug/ml after 48-96 hr by agar cup diffusion method; conditions: read-out: DIZ
Penicillium [14] = experiment: Antimicrobial activity against Penicillium wild strain by agar cup diffusion method
Aspergillus clavatus [15] = experiment: Antimicrobial activity against Aspergillus clavatus MTCC 1323 by agar cup diffusion method
Pseudomonas aeruginosa [16] = experiment: Antimicrobial activity against Pseudomonas aeruginosa MTCC 1688 assessed as diameter of growth inhibition zone at 25 ug/ml after 18-24 hr by agar cup diffusion method; conditions: read-out: DIZ
Escherichia coli [17] = experiment: Antimicrobial activity against Escherichia coli MTCC 443 assessed as diameter of growth inhibition zone at 25 ug/ml after 18-24 hr by agar cup diffusion method; conditions: read-out: DIZ
Staphylococcus aureus [18] = experiment: Antimicrobial activity against Staphylococcus aureus MTCC 96 assessed as diameter of growth inhibition zone at 25 ug/ml after 18-24 hr by agar cup diffusion method; conditions: read-out: DIZ
Streptococcus pyogenes [19] = experiment: Antimicrobial activity against Streptococcus pyogenes MTCC 442 assessed as diameter of growth inhibition zone at 25 ug/ml after 18-24 hr by agar cup diffusion method; conditions: read-out: DIZ
Klebsiella pneumoniae [20] = experiment: Antimicrobial activity against Klebsiella pneumoniae MTCC 109 by agar cup diffusion method
Escherichia coli [21] = experiment: Antimicrobial activity against Escherichia coli MTCC 443 by agar cup diffusion method
Pseudomonas aeruginosa [22] = experiment: Antimicrobial activity against Pseudomonas aeruginosa MTCC 1688 by agar cup diffusion method
Staphylococcus aureus [23] = experiment: Antimicrobial activity against Staphylococcus aureus MTCC 96 by agar cup diffusion method
Streptococcus pyogenes [24] = experiment: Antimicrobial activity against Streptococcus pyogenes MTCC 442 by agar cup diffusion method
Trichophyton rubrum [25] = experiment: Antimicrobial activity against Trichophyton rubrum MTCC 296 by agar cup diffusion method
Candida albicans [26] = experiment: Antimicrobial activity against Candida albicans MTCC 227 by agar cup diffusion method
Klebsiella pneumoniae [27] = experiment: Antimicrobial activity against Klebsiella pneumoniae MTCC 109 assessed as diameter of growth inhibition zone at 250 ug/ml after 18-24 hr by agar cup diffusion method; conditions: read-out: DIZ
Pseudomonas aeruginosa [28] = experiment: Antimicrobial activity against Pseudomonas aeruginosa MTCC 1688 assessed as diameter of growth inhibition zone at 250 ug/ml after 18-24 hr by agar cup diffusion method; conditions: read-out: DIZ
Escherichia coli [29] = experiment: Antimicrobial activity against Escherichia coli MTCC 443 assessed as diameter of growth inhibition zone at 250 ug/ml after 18-24 hr by agar cup diffusion method; conditions: read-out: DIZ
Staphylococcus aureus [30] = experiment: Antimicrobial activity against Staphylococcus aureus MTCC 96 assessed as diameter of growth inhibition zone at 250 ug/ml after 18-24 hr by agar cup diffusion method; conditions: read-out: DIZ
Streptococcus pyogenes [31] = experiment: Antimicrobial activity against Streptococcus pyogenes MTCC 442 assessed as diameter of growth inhibition zone at 250 ug/ml after 18-24 hr by agar cup diffusion method; conditions: read-out: DIZ
Klebsiella pneumoniae [32] = experiment: Antimicrobial activity against Klebsiella pneumoniae MTCC 109 assessed as diameter of growth inhibition zone at 100 ug/ml after 18-24 hr by agar cup diffusion method; conditions: read-out: DIZ
Pseudomonas aeruginosa [33] = experiment: Antimicrobial activity against Pseudomonas aeruginosa MTCC 1688 assessed as diameter of growth inhibition zone at 100 ug/ml after 18-24 hr by agar cup diffusion method; conditions: read-out: DIZ
Escherichia coli [34] = experiment: Antimicrobial activity against Escherichia coli MTCC 443 assessed as diameter of growth inhibition zone at 100 ug/ml after 18-24 hr by agar cup diffusion method; conditions: read-out: DIZ
Staphylococcus aureus [35] = experiment: Antimicrobial activity against Staphylococcus aureus MTCC 96 assessed as diameter of growth inhibition zone at 100 ug/ml after 18-24 hr by agar cup diffusion method; conditions: read-out: DIZ
Streptococcus pyogenes [36] = experiment: Antimicrobial activity against Streptococcus pyogenes MTCC 442 assessed as diameter of growth inhibition zone at 100 ug/ml after 18-24 hr by agar cup diffusion method; conditions: read-out: DIZ
Klebsiella pneumoniae [37] = experiment: Antimicrobial activity against Klebsiella pneumoniae MTCC 109 assessed as diameter of growth inhibition zone at 50 ug/ml after 18-24 hr by agar cup diffusion method; conditions: read-out: DIZ
Pseudomonas aeruginosa [38] = experiment: Antimicrobial activity against Pseudomonas aeruginosa MTCC 1688 assessed as diameter of growth inhibition zone at 50 ug/ml after 18-24 hr by agar cup diffusion method; conditions: read-out: DIZ
Escherichia coli [39] = experiment: Antimicrobial activity against Escherichia coli MTCC 443 assessed as diameter of growth inhibition zone at 50 ug/ml after 18-24 hr by agar cup diffusion method; conditions: read-out: DIZ
Staphylococcus aureus [40] = experiment: Antimicrobial activity against Staphylococcus aureus MTCC 96 assessed as diameter of growth inhibition zone at 50 ug/ml after 18-24 hr by agar cup diffusion method; conditions: read-out: DIZ
Streptococcus pyogenes [41] = experiment: Antimicrobial activity against Streptococcus pyogenes MTCC 442 assessed as diameter of growth inhibition zone at 50 ug/ml after 18-24 hr by agar cup diffusion method; conditions: read-out: DIZ
Klebsiella pneumoniae [42] = experiment: Antimicrobial activity against Klebsiella pneumoniae MTCC 109 assessed as diameter of growth inhibition zone at 25 ug/ml after 18-24 hr by agar cup diffusion method; conditions: read-out: DIZ
Trichophyton rubrum [43] = experiment: Antimicrobial activity against Trichophyton rubrum MTCC 296 assessed as diameter of growth inhibition zone at 250 ug/ml after 48-96 hr by agar cup diffusion method; conditions: read-out: DIZ
Aspergillus clavatus [44] = experiment: Antimicrobial activity against Aspergillus clavatus MTCC 1323 assessed as diameter of growth inhibition zone at 250 ug/ml after 48-96 hr by agar cup diffusion method; conditions: read-out: DIZ
Candida albicans [45] = experiment: Antimicrobial activity against Candida albicans MTCC 227 assessed as diameter of growth inhibition zone at 250 ug/ml after 48-96 hr by agar cup diffusion method; conditions: read-out: DIZ

SMILES: COc1ccc(/C=C/C(=O)C2C(=O)NC(=S)NC2=O)cc1
- zone of inhibition at 250 µg/mL (Penicillium [1]): 25 mm
- zone of inhibition at 100 µg/mL (Penicillium [2]): 23 mm
- zone of inhibition at 100 µg/mL (Trichophyton rubrum [3]): 21 mm
- zone of inhibition at 100 µg/mL (Aspergillus clavatus [4]): 23 mm
- zone of inhibition at 100 µg/mL (Candida albicans [5]): 24 mm
- zone of inhibition at 50 µg/mL (Penicillium [6]): 21 mm
- zone of inhibition at 50 µg/mL (Trichophyton rubrum [7]): 20 mm
- zone of inhibition at 50 µg/mL (Aspergillus clavatus [8]): 21 mm
- zone of inhibition at 50 µg/mL (Candida albicans [9]): 21 mm
- zone of inhibition at 25 µg/mL (Penicillium [10]): 21 mm
- zone of inhibition at 25 µg/mL (Trichophyton rubrum [11]): 19 mm
- zone of inhibition at 25 µg/mL (Aspergillus clavatus [12]): 20 mm
- zone of inhibition at 25 µg/mL (Candida albicans [13]): 18 mm
- MFC (Penicillium [14]): 500 µg/mL (≈ 1640 µM)
- MIC (Penicillium [14]): 500 µg/mL (≈ 1640 µM)
- MFC (Aspergillus clavatus [15]): 1000 µg/mL (≈ 3290 µM)
- MIC (Aspergillus clavatus [15]): 500 µg/mL (≈ 1640 µM)
- zone of inhibition at 25 µg/mL (Pseudomonas aeruginosa [16]): 13 mm
- zone of inhibition at 25 µg/mL (Escherichia coli [17]): 15 mm
- zone of inhibition at 25 µg/mL (Staphylococcus aureus [18]): 13 mm
- zone of inhibition at 25 µg/mL (Streptococcus pyogenes [19]): 15 mm
- MBC (Klebsiella pneumoniae [20]): 250 µg/mL (≈ 821 µM)
- MIC (Klebsiella pneumoniae [20]): 200 µg/mL (≈ 657 µM)
- MBC (Escherichia coli [21]): 250 µg/mL (≈ 821 µM)
- MIC (Escherichia coli [21]): 200 µg/mL (≈ 657 µM)
- MBC (Pseudomonas aeruginosa [22]): 125 µg/mL (≈ 411 µM)
- MIC (Pseudomonas aeruginosa [22]): 100 µg/mL (≈ 329 µM)
- MBC (Staphylococcus aureus [23]): 250 µg/mL (≈ 821 µM)
- MIC (Staphylococcus aureus [23]): 200 µg/mL (≈ 657 µM)
- MBC (Streptococcus pyogenes [24]): 250 µg/mL (≈ 821 µM)
- MIC (Streptococcus pyogenes [24]): 200 µg/mL (≈ 657 µM)
- MFC (Trichophyton rubrum [25]): > 1000 µg/mL
- MIC (Trichophyton rubrum [25]): > 1000 µg/mL
- MFC (Candida albicans [26]): 1000 µg/mL (≈ 3290 µM)
- MIC (Candida albicans [26]): > 1000 µg/mL
- zone of inhibition at 250 µg/mL (Klebsiella pneumoniae [27]): 17 mm
- zone of inhibition at 250 µg/mL (Pseudomonas aeruginosa [28]): 21 mm
- zone of inhibition at 250 µg/mL (Escherichia coli [29]): 21 mm
- zone of inhibition at 250 µg/mL (Staphylococcus aureus [30]): 21 mm
- zone of inhibition at 250 µg/mL (Streptococcus pyogenes [31]): 21 mm
- zone of inhibition at 100 µg/mL (Klebsiella pneumoniae [32]): 14 mm
- zone of inhibition at 100 µg/mL (Pseudomonas aeruginosa [33]): 18 mm
- zone of inhibition at 100 µg/mL (Escherichia coli [34]): 20 mm
- zone of inhibition at 100 µg/mL (Staphylococcus aureus [35]): 18 mm
- zone of inhibition at 100 µg/mL (Streptococcus pyogenes [36]): 20 mm
- zone of inhibition at 50 µg/mL (Klebsiella pneumoniae [37]): 13 mm
- zone of inhibition at 50 µg/mL (Pseudomonas aeruginosa [38]): 17 mm
- zone of inhibition at 50 µg/mL (Escherichia coli [39]): 18 mm
- zone of inhibition at 50 µg/mL (Staphylococcus aureus [40]): 17 mm
- zone of inhibition at 50 µg/mL (Streptococcus pyogenes [41]): 18 mm
- zone of inhibition at 25 µg/mL (Klebsiella pneumoniae [42]): 11 mm
- zone of inhibition at 250 µg/mL (Trichophyton rubrum [43]): 22 mm
- zone of inhibition at 250 µg/mL (Aspergillus clavatus [44]): 24 mm
- zone of inhibition at 250 µg/mL (Candida albicans [45]): 24 mm
